Source: the OPERA property sets (Mansouri et al. 2018)

Settings: not given

SMILES | boiling point | log10 biodegradation half-life (days) | log10 vapour pressure (mmHg) | melting point | ready biodegradability | log10 Henry constant (atm·m³/mol) | log10 Koc (L/kg) | log10 Koa
CCCCCCCCCCCCCCCCCCCCCCCCCC | 412 °C | 2 | -6.33 | 56.4 °C | readily biodegradable | – | – | –
CCCCCCCCCCCCCCCCC(=O)OCC | – | – | – | 28 °C | – | – | – | –
FC(F)(F)CCCl | 45.1 °C | – | – | -106 °C | – | – | – | –
CC(C)Cl | 35.7 °C | – | 2.71 | -117 °C | – | – | – | –
O=C1OC(=O)C(F)(F)C1(F)F | 54.5 °C | – | – | – | – | – | – | –
Cc1c(N)cc([N+](=O)[O-])cc1C(N)=O | – | – | – | 199 °C | – | – | – | –
C=CC(=O)OC | 80.2 °C | – | 1.94 | -76.5 °C | readily biodegradable | – | – | –
O=C1C=CC(=O)N1c1ccc(Cc2ccc(N3C(=O)C=CC3=O)cc2)cc1 | – | – | – | – | not readily biodegradable | – | – | –
O=C(Cl)C(=O)Cl | 63.5 °C | – | – | -16 °C | – | – | – | –
S=C1NCCS1 | – | – | – | 106 °C | – | – | – | –
O=C(CO)[C@@H](O)[C@@H](O)[C@H](O)[C@H](O)CO | – | – | – | 151 °C | – | – | – | –
C=CCl | -13.3 °C | – | 3.47 | -154 °C | – | -1.56 | – | –
O=C(O)C(F)Cl (configuration not stated) | 162 °C | – | – | – | – | – | – | –
CCN(CC)CCNc1ccc(C)c2sc3ccccc3c(=O)c12.Cl | – | – | – | 196 °C | – | – | – | –
O=C(O)c1cc(O)cc(C(=O)O)c1 | – | – | – | 293 °C | – | – | – | –
Brc1cccc(Br)c1Br | – | – | – | 87.5 °C | – | – | – | –
CNCC(OC)OC | 140 °C | – | – | – | – | – | – | –
NC(=O)c1cccs1 | – | – | – | 182 °C | – | – | – | –
O=Cc1cc2c(cc1[N+](=O)[O-])OCO2 | – | – | – | 93.5 °C | – | – | – | –
CCCCCCCCC=CCCCCCCCC(=O)N(C)CCS(=O)(=O)[O][Na] | – | – | – | – | readily biodegradable | – | – | –

SMILES | boiling point | log10 biodegradation half-life (days) | log10 vapour pressure (mmHg) | melting point | ready biodegradability | log10 Henry constant (atm·m³/mol) | log10 Koc (L/kg) | log10 Koa
O=C(O)CCc1ccc(O)cc1 | – | – | – | 131 °C | – | – | – | –
Cc1nc2cc(-c3ccccc3)ccc2o1 | – | – | – | 63 °C | – | – | – | –
CCCN(C)C | 66 °C | – | – | – | – | – | – | –
c1ccc(CN2CCOCC2)cc1 | 260 °C | – | – | 194 °C | – | – | – | –
O=[N+]([O-])c1cccc(S(=O)(=O)NCCNS(=O)(=O)c2cccc([N+](=O)[O-])c2)c1 | – | – | – | 190 °C | – | – | – | –
C=C[Si](C)(C)O[Si](C)(C)C=C | 39 °C | – | – | -99.7 °C | – | – | – | –
C=CCCCCC=C | 116 °C | – | – | – | – | – | – | –
O=C(O)COc1ccccc1 | 285 °C | – | – | 98.5 °C | – | – | – | –
CC(C)N(C(=O)SCC(Cl)=C(Cl)Cl)C(C)C | – | – | -3.92 | 29 °C | – | – | 3.35 | –
FC(F)(F)C(F)(F)C(Cl)Cl | 51.1 °C | – | 2.38 | -94 °C | – | -0.299 | – | –
Cl[Si](Cl)(Cl)c1ccccc1 | 201 °C | – | -0.371 | – | – | – | – | –
c1ccc(Nc2ccc(-c3ccc(Nc4ccccc4)cc3)cc2)cc1 | – | – | – | 247 °C | – | – | – | –
O=S(=O)(O)C(F)(F)F | 166 °C | – | -1 | – | – | – | – | –
O=C1CCCCCCN1 | – | – | – | 36.5 °C | – | – | – | –
CC(C)(S)C(=O)O | – | – | – | 47 °C | – | – | – | –
CC(C)(C(=O)O)C(C)(C)C(=O)O | – | – | – | 200 °C | – | – | – | –
CC(C)c1cc(Oc2ccccc2)cc(C(C)C)c1NC(=S)NC(C)(C)C | – | – | – | 146 °C | – | – | – | –
CC1(C)OC(=O)CC(=O)O1 | – | – | – | 94 °C | – | – | – | –
c1ccc(N2CCN(c3ccccc3)CC2)cc1 | – | – | – | 165 °C | – | – | – | –
CCC(C)OC(C)CC (configuration not stated) | – | – | 1.21 | -100 °C | – | – | – | –

SMILES | boiling point | log10 biodegradation half-life (days) | log10 vapour pressure (mmHg) | melting point | ready biodegradability | log10 Henry constant (atm·m³/mol) | log10 Koc (L/kg) | log10 Koa
C=CC(C)(C)C | 41.2 °C | – | 2.63 | -115 °C | – | – | – | –
CCN(CC)C1CCCCC1 | 193 °C | – | – | – | – | – | – | –
COc1ccc(C=CC(=O)c2ccccc2)cc1 | – | – | – | 79 °C | – | – | – | –
COc1ccc(CC#N)cc1OC | – | – | – | 62.8 °C | – | – | – | –
Fc1ccc(Cl)cc1 | 130 °C | – | – | -26.8 °C | – | – | – | –
Clc1cccc(Cl)c1 | 173 °C | – | 0.332 | -24.8 °C | not readily biodegradable | -2.58 | 2.58 | 4.12
C[C@H](NC(=O)COC(=O)c1ccccc1)C(N)=O | – | – | – | 202 °C | – | – | – | –
Ic1cccs1 | 181 °C | – | 0.906 | -40 °C | – | – | – | –
CCCOC(=O)C(=O)OCCC | 211 °C | – | – | -44.3 °C | – | – | – | –
CCCC(=O)Oc1ccccc1 | 225 °C | – | – | – | – | – | – | –
Oc1ccc(NCc2ccccc2)cc1 | – | – | – | 88 °C | – | – | – | –
S=C([S-])[S-] | – | – | – | -30 °C | – | – | – | –
COc1cc(NS(=O)(=O)c2ccc(N)cc2)nc(C)n1 | – | – | – | 146 °C | – | – | – | –
CCCCCCCCCC(=O)O | 269 °C | – | -3.44 | 31.9 °C | readily biodegradable | – | – | –
Nc1ncccn1 | – | – | – | 128 °C | – | – | – | –
CC(C)Br | 59.5 °C | – | 2.34 | -89 °C | readily biodegradable | – | – | –
Cc1cc(Cl)cc(Cl)c1 | 202 °C | – | – | 26 °C | – | – | – | –
Cc1cc(C)c(N(C)C)c(C)c1 | 214 °C | – | – | – | – | – | – | –
ClCCCCl | 121 °C | – | 1.26 | -99.5 °C | – | -3.01 | – | –

Same assay, conditions: fish

SMILES | log10 BCF | log10 biotransformation half-life (days)
Clc1cc(Cl)c(Cl)cc1Cl | 3.44 | 1.79
CC(C)CCOCCC(C)C | 2.23 | -0.45
O=C(O)C1C(C(=O)O)C2(Cl)C(Cl)=C(Cl)C1(Cl)C2(Cl)Cl (configuration not stated) | 0.32 | –
Clc1cc(Cl)cc(-c2ccccc2)c1 | 3.77 | 1.11
Clc1cc(Cl)c(Oc2cc(Cl)c(Cl)c(Cl)c2Cl)cc1Cl | – | 1.97
Brc1cc(Br)c(Oc2c(Br)c(Br)c(Br)c(Br)c2Br)cc1Br | 5.93 | –
Clc1cccc(Cl)c1 | 2.33 | -0.21
